From ChEMBL document CHEMBL1201862, “PubChem BioAssay data set” (2004) come the findings set out here.

Active and inactive are the calls of the source.

As a reminder, the CC50 is the concentration giving 50% cytotoxicity. Broadly, the AC50 is the midpoint of the concentration-response curve, whichever way the signal moves. As usually defined, the EC50 is the concentration giving half of the maximal effect. By IC50 is commonly meant the point on the concentration scale where inhibition reaches its midpoint.

The nature of test [1]: THP-1 cell cytotoxicity, dose response, cytotoxicity control for non-replicating M. tuberculosis project (AID 489025). In kind it is functional.
Test [2] is described as follows: Luminescence Cell-Based Dose Retest to Confirm Inhibitors of Cancer Stem Cells. [Related pubchem assays (depositor defined):AID2717, AID2721]. In kind it is functional. The note with it: Homo sapiens.
The nature of test [3]: Vero E6 cell cytotoxicity, dose response, cytotoxicity control for non-replicating M. tuberculosis project, secondary assay (AID 492998). The format is functional, VeroE6. The note with it: Vero C1008.
For test [4], the target named is T1, Heat shock factor protein 1 (Mus musculus, UniProt P38532).
T1 sequence (P38532 whole entry): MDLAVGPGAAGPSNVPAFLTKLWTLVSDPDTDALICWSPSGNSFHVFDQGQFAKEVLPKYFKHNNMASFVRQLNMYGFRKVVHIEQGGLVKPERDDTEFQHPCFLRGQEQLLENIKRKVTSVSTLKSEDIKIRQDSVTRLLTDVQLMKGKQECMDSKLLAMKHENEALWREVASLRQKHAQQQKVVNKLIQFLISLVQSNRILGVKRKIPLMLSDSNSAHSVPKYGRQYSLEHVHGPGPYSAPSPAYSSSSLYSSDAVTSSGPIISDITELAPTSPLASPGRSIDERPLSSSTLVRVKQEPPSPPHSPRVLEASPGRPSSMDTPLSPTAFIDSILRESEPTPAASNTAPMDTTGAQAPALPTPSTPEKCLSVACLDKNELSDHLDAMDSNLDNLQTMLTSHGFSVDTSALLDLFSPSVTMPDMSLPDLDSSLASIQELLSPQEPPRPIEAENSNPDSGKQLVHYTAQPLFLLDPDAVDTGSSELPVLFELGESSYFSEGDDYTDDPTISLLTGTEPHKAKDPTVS
The test is described as follows: enhancement of HSF1-driven luciferase signal – cell-based, NIH3T3, luminescence, dose retest, confirmation (AID 435004).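 Also: stress induced by proteasome inhibitor MG132 added 30 min after compound; luciferase reporter driven by HSF1 response element in NIH3T3 cells; actives raise luminescence as potentiators of the MG132 stress response.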 In kind it is functional.

A short description of test [5]: cells. In kind it is functional.
In test [6] the test system is CHO. The test is described as follows: CHO cell viability loss, potency – luminescence, cytotoxicity control for TLR9-MyD88 binding inhibitor project, dose response (AID 588339).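 Also: CHO cells stably coexpressing TLR9 and MyD88 fusions from primary screen; compound exposure lasted 48 hours before viability readout.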 In kind it is functional, cell-based, hamster. The note with it: Cricetulus griseus.
Test [7] deals with Heat shock protein HSP 90-alpha (Homo sapiens, UniProt P07900). The format is functional, organism-based.
In test [8] the target is Beta Lactamase (Pseudomonas aeruginosa, UniProt Q932Y6). The test is described as follows: BLA reporter interference, concentration series – BLA reporter cells, FRET fluorescence, artefact control for TLR9-MyD88 binding inhibitor project, dose response (AID 588341).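 Also: cell based assay in CHO-K1 cells stably expressing beta-lactamase.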 In kind it is cell-based.
Chain of Beta Lactamase (Q932Y6 whole entry, the tested form may be a part): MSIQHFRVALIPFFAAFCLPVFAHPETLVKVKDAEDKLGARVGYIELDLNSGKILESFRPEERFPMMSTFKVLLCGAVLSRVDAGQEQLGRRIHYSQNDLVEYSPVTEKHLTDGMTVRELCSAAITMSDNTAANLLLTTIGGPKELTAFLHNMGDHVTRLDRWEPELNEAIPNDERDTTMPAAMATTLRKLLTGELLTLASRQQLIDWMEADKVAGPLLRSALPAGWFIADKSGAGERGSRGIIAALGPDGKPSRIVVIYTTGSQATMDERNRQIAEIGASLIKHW
Test [9] in a line: Fluorescence-based cell-based high throughput dose response assay for inhibitors of the interaction of nucleotide-binding oligomerization domain containing 2 (NOD2) and the receptor-interacting serine-threonine kinase 2 (RIPK2). In kind it is functional. The note with it: Homo sapiens.
Test [10] can be described thus: NIH-3T3 fibroblast cytotoxicity, dose response, cytotoxicity control, cell-based, fluorescence, Alamar Blue, secondary assay (AID 2327).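 Also: NIH-3T3 mouse fibroblasts cultured with fluconazole at 8 µg/mL.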 In kind it is functional. A general note: Alamar Blue is a resazurin reagent that responds to reducing activity.
Test [11] is described as follows: fluconazole-exposed Candida albicans growth modulators – fluorescence, retest, confirmation (AID 2467). The format is functional, cell-based.
Test [12] is described as follows: Trypanosoma cruzi growth suppression in host cells – NIH3T3 host cells, beta-gal luminescence, confirmation (AID 2044).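 Also: intracellular parasites grown in NIH/3T3 mouse fibroblasts as host cells; luminescent beta-galactosidase reporter signal from transgenic T. cruzi replicating inside host cells; inhibitors lower the luminescence signal.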 In kind it is functional, cell-based.
For test [13], the target named is Serine/threonine-protein phosphatase (Candida dubliniensis (strain CD36 / CBS 7987 / NCPF 3949 / NRRLY-17841) (Yeast), UniProt B9W6M3). The test is described as follows: blockers of CaCl2-induced CDRE-lacZ signaling – S. cerevisiae, luminescence, secondary, dose response (AID 2388).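 Also: yeast reporter cells carrying a calcineurin-responsive lacZ construct stimulated with calcium chloride; luminescent beta-galactosidase reporter signal in whole cells rather than isolated phosphatase activity; potency for inhibition where a drop in reporter signal means calcineurin blockade.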 The format is functional, cell-based.
Chain of Serine/threonine-protein phosphatase (B9W6M3 whole entry): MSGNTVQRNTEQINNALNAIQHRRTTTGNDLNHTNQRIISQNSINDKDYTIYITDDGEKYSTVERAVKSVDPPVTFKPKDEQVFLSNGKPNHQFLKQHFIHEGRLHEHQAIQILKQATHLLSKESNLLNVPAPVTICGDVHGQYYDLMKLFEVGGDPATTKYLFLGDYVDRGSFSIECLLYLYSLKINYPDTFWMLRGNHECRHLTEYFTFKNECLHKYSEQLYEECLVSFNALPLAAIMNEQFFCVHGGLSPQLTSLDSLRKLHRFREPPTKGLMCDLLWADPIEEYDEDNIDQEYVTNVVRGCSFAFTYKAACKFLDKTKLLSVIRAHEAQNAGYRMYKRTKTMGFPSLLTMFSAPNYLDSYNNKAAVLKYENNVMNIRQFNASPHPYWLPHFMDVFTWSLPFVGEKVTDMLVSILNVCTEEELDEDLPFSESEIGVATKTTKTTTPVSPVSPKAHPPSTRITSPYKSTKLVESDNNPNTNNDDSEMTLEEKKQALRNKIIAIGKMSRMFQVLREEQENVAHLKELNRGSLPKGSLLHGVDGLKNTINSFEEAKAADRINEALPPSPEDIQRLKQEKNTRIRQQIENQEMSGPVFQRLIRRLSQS
The nature of test [14]: NIH3T3 cell viability loss – ATP luminescence, mouse fibroblasts, counter-screen, dose response (AID 2010).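 Also: cells exposed to compound for about 90 hours before reading.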 In kind it is functional, cell-based. In general terms: The purpose of a counterscreen is to sort out artefacts and off-target activity.
In test [15] the test system is INS1. Kind of test: INS-1E survival protection against cytokine death – cell-based, luminescence, retest, dose response (AID 449756).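 Also: cell death triggered by IL-1 beta plus TNF-alpha plus IFN-gamma mixture; protective hits raise ATP signal compared with cytokine alone wells.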 In kind it is functional. The note with it: Rattus norvegicus.
Test [16] has as its target ATP-dependent molecular chaperone HSP82 (Candida albicans (strain WO-1) (Yeast), UniProt C4YTQ8). The test is described as follows: steroid-induced GRE reporter decrease in yeast – S. cerevisiae, luminescence, Hsp90 inhibitor project, dose response (AID 2400).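 Also: beta-galactosidase luminescence from glucocorticoid response element reporter as proxy for Hsp90 function; inhibitor potency where signal loss means Hsp90 inhibition.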 The format is functional, cell-based.
Test [17] relates to A-375. The test is described as follows: MITF: Counter assay: A375 proliferation Measured in Cell-Based System Using Plate Reader - 2084-03_Inhibitor_Dose_DryPowder_Activity. [Related pubchem assays (depositor defined):AID488944]. The format is functional. The note with it: Homo sapiens.
Test [18] deals with HeLa. Kind of test: ATP-based viability loss in HeLa cells – cell-based, CellTiter-Glo luminescence, cherry-pick samples, cytotoxicity control for MITF activator project, dose response (AID 540259). The format is functional. The note with it: Homo sapiens. (In general: In ATP-based viability assays light output follows the ATP content of the culture.)
In test [19] the test system is A-375. Kind of test: proliferation inhibition in MITF-low A375 cells – cell-based, cherry-pick samples, set 2, counter-screen for MITF modulator project, dose response (AID 540335). In kind it is functional. The note with it: Homo sapiens.
The target in test [20] is T2, RNA-binding protein pos-1 (Caenorhabditis elegans, UniProt G5EF15).
T2 sequence (G5EF15 whole entry): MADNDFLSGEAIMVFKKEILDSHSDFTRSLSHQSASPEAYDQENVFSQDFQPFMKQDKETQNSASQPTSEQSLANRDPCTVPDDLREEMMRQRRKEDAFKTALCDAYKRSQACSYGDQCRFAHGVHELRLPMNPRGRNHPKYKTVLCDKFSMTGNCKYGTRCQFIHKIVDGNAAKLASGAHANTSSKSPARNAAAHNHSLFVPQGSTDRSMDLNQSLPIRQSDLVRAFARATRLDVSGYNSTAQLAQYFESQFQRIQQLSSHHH
The test is described as follows: disruptors of C. elegans POS-1 RNA interaction – biochemical, fluorescence polarization, dose response (AID 1964).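 Also: purified POS-1 fused to maltose binding protein made in E. coli; potency of compounds blocking POS-1 binding to fluorescent RNA.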

In test [21] the target is T3, Zinc finger protein mex-5 (Caenorhabditis elegans, UniProt Q9XUB2).
T3 sequence (Q9XUB2 whole entry): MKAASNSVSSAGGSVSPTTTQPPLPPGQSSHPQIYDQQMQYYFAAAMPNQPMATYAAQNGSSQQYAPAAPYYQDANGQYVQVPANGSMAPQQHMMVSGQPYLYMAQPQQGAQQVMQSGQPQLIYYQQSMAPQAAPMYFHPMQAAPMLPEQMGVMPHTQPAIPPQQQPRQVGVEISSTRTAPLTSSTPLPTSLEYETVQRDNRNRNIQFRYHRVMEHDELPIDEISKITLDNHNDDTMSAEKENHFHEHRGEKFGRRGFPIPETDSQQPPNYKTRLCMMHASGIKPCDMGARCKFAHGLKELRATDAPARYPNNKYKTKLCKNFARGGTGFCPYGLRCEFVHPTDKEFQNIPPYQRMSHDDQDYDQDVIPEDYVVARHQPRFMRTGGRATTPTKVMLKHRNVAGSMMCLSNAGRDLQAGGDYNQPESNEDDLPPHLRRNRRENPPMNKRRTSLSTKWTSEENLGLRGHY
Kind of test: potency of MEX-5 RNA-binding blockers – biochemical, C. elegans, fluorescence polarization, dose response (AID 1960).

Test [22] addresses Dual specificity tyrosine-phosphorylation-regulated kinase 1A (Rattus norvegicus, UniProt Q63470). In kind it is biochemical, Homo sapiens.
Test [23] addresses T4, Caspase-6 (Homo sapiens, UniProt P55212).
T4 sequence (P55212 whole entry): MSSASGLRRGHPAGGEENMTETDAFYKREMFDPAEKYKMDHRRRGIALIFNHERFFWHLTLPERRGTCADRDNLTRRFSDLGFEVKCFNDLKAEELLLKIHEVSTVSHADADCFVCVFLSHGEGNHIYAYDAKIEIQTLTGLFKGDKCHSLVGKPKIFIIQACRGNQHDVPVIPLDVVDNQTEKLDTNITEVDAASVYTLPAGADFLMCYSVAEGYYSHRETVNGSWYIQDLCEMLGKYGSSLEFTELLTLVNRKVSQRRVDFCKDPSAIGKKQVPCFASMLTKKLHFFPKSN
Kind of test: inhibition of CASP6 peptide cleavage – biochemical, VEID-R110 fluorescence, cherry-pick, dose response (AID 720632).

Chain of ATP-dependent molecular chaperone HSP82 (C4YTQ8 whole entry): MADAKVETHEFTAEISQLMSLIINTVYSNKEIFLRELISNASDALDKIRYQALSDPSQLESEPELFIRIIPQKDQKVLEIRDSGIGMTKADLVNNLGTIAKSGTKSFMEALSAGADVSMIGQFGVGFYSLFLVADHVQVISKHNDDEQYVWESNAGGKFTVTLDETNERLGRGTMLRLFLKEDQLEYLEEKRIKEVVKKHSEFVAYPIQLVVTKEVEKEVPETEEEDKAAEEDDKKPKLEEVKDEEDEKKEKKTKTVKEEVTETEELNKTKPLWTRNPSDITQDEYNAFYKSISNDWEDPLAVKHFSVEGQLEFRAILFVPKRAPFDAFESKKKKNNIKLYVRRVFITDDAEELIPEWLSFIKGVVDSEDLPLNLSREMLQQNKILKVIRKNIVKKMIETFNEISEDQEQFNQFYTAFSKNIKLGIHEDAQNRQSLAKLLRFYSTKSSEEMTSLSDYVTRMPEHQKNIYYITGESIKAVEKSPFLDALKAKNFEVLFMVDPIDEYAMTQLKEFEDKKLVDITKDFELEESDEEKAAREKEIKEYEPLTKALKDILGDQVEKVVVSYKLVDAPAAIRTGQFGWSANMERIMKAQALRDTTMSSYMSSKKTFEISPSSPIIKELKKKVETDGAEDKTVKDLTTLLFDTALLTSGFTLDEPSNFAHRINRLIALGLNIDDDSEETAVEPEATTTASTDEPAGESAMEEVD

`C=CCN1C(=O)/C(=C2/C(=O)Nc3ccccc32)c2ccccc21`: the results for the CC50 in [1] and in test [3] were 19.7 µM (active) and 3.31 µM (active), respectively. The AC50 in test [2] is 4.32 µM (active); in [7], 1.17 µM (active). Also, in [4], the EC50 was 8.91 µM (active). Moreover, the 50% inhibitory concentration (IC50) in [5] was 0.4 µM (active); in test [6], 3.64 µM (active); in [8], > 49.8 µM (inactive); in [9] it was 2.1 µM (active).

As to `CCCCCCOC(=O)C[N+](C)(C)CCOC1CC2CCC1(C)C2(C)C` (stereo not drawn), the half-maximal effective concentration (EC50) in test [10] was 23.6 µM (active); in [11] it was 0.456 µM (active); in test [12], 0.178 µM (active); in [13], > 180 µM (inactive); in test [14], > 30 µM (not active); in test [16], 30.6 µM (active). Besides, the half-maximal activity concentration (AC50) in [15] was 4.16 µM (active).

For the compound `COC(=O)c1c(C)[nH]c(/C=N/Nc2ccccc2)c1C`, the AC50 in test [17] is > 35 µM (active); in test [18], 103 µM (active); in test [19], > 35 µM (active).

`Cc1cc(/C=N/Nc2ccc([N+](=O)[O-])cn2)c(C)n1-c1cccc(C(=O)O)c1`: the EC50 in test [20] was > 300 µM (not active); in test [21], 37.7 µM (active). Also, the concentration at half-maximal activity (AC50) is 8.79 µM (active) in test [22] and 14.4 µM (active) in test [23].
